Test results taken from patent US9051333B2, “6,7-dihydroimidazo [2,1-b] [1,3]oxazine bactericides” (OTSUKA PHARMACEUTICAL CO., LTD., priority 2011, dated 2015).
In brackets after ≈: the same amount, converted by molar mass.

test system: Mycobacterium tuberculosis (M. tuberculosis H37Rv); assay: Antimicrobial Assay (Agar Plate Dilution Method), M. tuberculosis H37Rv; type: cell-based; details: 336 h, 7H11 agar medium, cultured at 37° C. for 14 days, read-out: minimum inhibitory concentration

Work on `O=[N+]([O-])c1cn2c(n1)O[C@@H](COc1ccc(N3CCC(Cc4ccc(Oc5ccc(OC(F)(F)F)cc5)cc4)CC3)cc1)CC2` [Example 228, (R)-2-nitro-7-(4-{4-[4-(4-trifluoromethoxyphenoxy)benzyl]piperidin-1-yl}phenoxymethyl)-6,7-dihydro-5H-imidazo[2,1-b][1,3]oxazine] yielded an MIC of no more than 0.4 ng/mL.

test system: Mycobacterium tuberculosis (M. tuberculosis kurono); assay: Antimicrobial Assay (Agar Plate Dilution Method), M. tuberculosis kurono; type: cell-based; details: 336 h, M. tuberculosis kurono, 7H11 agar medium, cultured at 37° C. for 14 days, read-out: Minimum Inhibitory Concentration

`O=[N+]([O-])c1cn2c(n1)O[C@@H](COc1ccc(N3CCC(Cc4ccc(Oc5ccc(OC(F)(F)F)cc5)cc4)CC3)cc1)CC2` [Example 228, (R)-2-nitro-7-(4-{4-[4-(4-trifluoromethoxyphenoxy)benzyl]piperidin-1-yl}phenoxymethyl)-6,7-dihydro-5H-imidazo[2,1-b][1,3]oxazine] and `O=[N+]([O-])c1cn2c(n1)O[C@@H](COc1ccc(N3CCN(c4ccc(OCc5ccc(OC(F)(F)F)cc5)cc4)CC3)cc1)CC2` [Example 198, (R)-2-nitro-7-(4-{4-[4-(4-trifluoromethoxybenzyloxy)phenyl]piperazin-1-yl}phenoxymethyl)-6,7-dihydro-5H-imidazo[2,1-b][1,3]oxazine] cannot be ordered by MIC: 0.8 ng/mL (≈ 1.28 nM) for the first, no more than 1.5 ng/mL for the second.

Going from `O=[N+]([O-])c1cn2c(n1)O[C@H](COc1ccc(N3CCN(Cc4ccc(NCc5ccc(C(F)(F)F)cc5)cc4)CC3)cc1)CC2` [Example 290, N-(4-{4-[4-((S)-2-nitro-6,7-dihydro-5H-imidazo[2,1-b][1,3]oxazin-7-ylmethoxy)phenyl]piperazin-1-ylmethyl}phenyl)-N-(4-trifluoromethylbenzyl)amine] to `O=[N+]([O-])c1cn2c(n1)O[C@@H](COc1ccc3c(c1)CCN(Cc1ccc(OCc4ccc(C(F)(F)F)cc4)cc1)C3)CC2` [Example 304, 6-((R)-2-nitro-6,7-dihydro-5H-imidazo[2,1-b][1,3]oxazin-7-ylmethoxy)-2-[4-(4-trifluoromethylbenzyloxy)benzyl]-1,2,3,4-tetrahydroisoquinoline], the MIC rises from 0.8 ng/mL (≈ 1.28 nM) to 12 ng/mL (≈ 20.2 nM) (15-fold).

First: O=[N+]([O-])c1cn2c(n1)OC(COc1ccc(-c3coc(COc4ccc(OC(F)(F)F)cc4)n3)cc1)CC2 (stereo not shown) [Example 53, 2-nitro-7-{4-[2-(4-trifluoromethoxyphenoxymethyl)oxazol-4-yl]phenoxymethyl}-6,7-dihydro-5H-imidazo[2,1-b][1,3]oxazine]
Second: O=[N+]([O-])c1cn2c(n1)O[C@@H](COc1ccc(N3CCN(CC4CCC(C(F)(F)F)CC4)CC3)cc1)CC2 (stereo partly drawn) [Example 414, (R)-2-nitro-7-{4-[4-(4-trifluoromethyl-cyclohexylmethyl)piperazin-1-yl]phenoxymethyl}-6,7-dihydro-5H-imidazo[2,1-b][1,3]oxazine]
The MIC of the first is 17-fold higher: 100 ng/mL (≈ 188 nM) for the first, 6 ng/mL (≈ 11.5 nM) for the second.
